# Legend:
# Type in all cases: biochemical
# Rat rIgA (poly-rIgA) = test: SEC determination of poly- and mono-rIgA content of rat rIgA after treatment; conditions: 1 h 37° C., PBS, SEC AUC
# Experimental: (§1) The overall complex size of IgA aggregates was determined either by size-exclusion chromatography (SEC: Superdex 200 Increase 10/300 by GL Cytiva), or by SDS-PAGE. For evaluating the involvement of intermolecular disulfide connectivity in IgA complexes, IgA samples were treated with either reducing agents, such as DTT, TCEP or reduced glutathione (Sigma), or interventional drugs, such as cysteamine (Sigma), WR-1065 (Sigma) and N-Acetyl-L-cysteine (VWR Chemicals) in phosphate-buffered saline (PBS) pH7.4. Before running on SEC, samples were treated with the drugs at indicated concentrations at 37° C. for one hour.
# In the meantime, the SEC column was also equilibrated with PBS supplemented with the reducing agent at the same concentration. For running SEC, 100 μL of the recombinant IgA (concentration varies between 1 mg/mL and 8 mg/mL) or purified native human IgA1 (˜1 mg/mL) was loaded to the column and UV absorption was recorded following elution. […] The ratios between poly-rIgA and mono-rIgA were calculated as between the corresponding areas under the curve (AUC), and the treatment effect of the thiol agents was judged by the reduction of the poly-rIgA level with a compensatory increase of the mono-rIgA content.
# To further investigate specific cysteine residue(s) involved in IgA complexes, expression vectors were constructed to produce recombinant IgA (rIgA) Fc segments of rat and human sequences (FIG. 2, part A) as discussed above. Rat IgA analogs were expressed in BL21 DE3 strain of E. coil and recombinant protein were purified from the bacterial lysate using Histrap HP columns (GE Healthcare) by running fast protein liquid chromatography (FPLC). Human recombinant IgA mimetics were produced from human embryo kidney (HEK293) cells by transfection of the expressing plasmids. Recombinant IgA proteins expressed by the cells were secreted into the culture medium, and they were subsequently purified by Histrap HP columns by FPLC using standard procedures. […] Rat rIgA was produced from bacterial expression as discussed above.
# Cysteamine (Cy), an aminothiol that can react with cysteine, is both a natural metabolite produced in mammalian cells and a clinical drug used for treatment of cystinosis. In cystinosis, cysteamine reduces the disulfide bond in cystine, which is the oxidated dimer of amino acid cysteine (FIG. 4, part A). In the context of cysteine residues in proteins, endogenous cysteamine as well as the therapeutic drug forms mixed disulfides with susceptible cysteine sulfhydryl groups in a process called cysteamination (FIG. 4, part B). It was sought to determine whether cysteamine could reduce Cys471-disulfides to disaggregate poly-IgA. Rat rIgA (SEQ ID NO.4) was treated with various concentrations of cysteamine for one hour at 37° C. in phosphate buffered saline at neutral pH and the protein complexes were analyzed by SEC. The SEC column (model: Superdex 200 Increase 10/300 GL by Cytiva) was preequilibrated with the same buffer supplemented with the same concentration of cysteamine.
# human IgA1 (poly-IgA1) = target: T1, human IgA1 (poly-IgA1) (Homo sapiens, UniProt P01876); test: SEC of native human IgA1 treated ex vivo; conditions: IgA1 from pooled plasma of IgA nephropathy patients, different concentrations, FIG. 5 C
# T1 construct: human IgA1 whole molecule was purified from pooled plasma of IgA nephropathy patients; from tissue
# T1 sequence (P01876 1-353 isoform P01876-1): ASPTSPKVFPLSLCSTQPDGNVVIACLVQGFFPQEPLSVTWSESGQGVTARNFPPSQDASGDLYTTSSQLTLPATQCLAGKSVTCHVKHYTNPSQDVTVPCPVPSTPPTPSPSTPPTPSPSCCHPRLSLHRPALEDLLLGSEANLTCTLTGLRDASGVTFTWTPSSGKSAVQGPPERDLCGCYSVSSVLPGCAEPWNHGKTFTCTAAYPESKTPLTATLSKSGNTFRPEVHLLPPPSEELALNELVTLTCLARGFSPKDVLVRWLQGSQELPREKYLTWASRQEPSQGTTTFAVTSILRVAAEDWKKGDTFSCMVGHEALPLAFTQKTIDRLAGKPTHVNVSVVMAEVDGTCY
# Text: IgA1 from IgA nephropathy patient sera was purified by Jacalin (Thermo Scientific, USA)-directed affinity chromatography. Poly-IgA1 contents were further enriched via running Superdex 200 Increase gel filtration molecular sieve (GE Biosciences) and collecting high-molecular weight fractions from an AKTA protein purification system (GE Biosciences). Human serum from healthy donors was purchased from Sigma-Aldrich and total IgA1 was also purified by running Jacalin-directed chromatography. Purified total IgA1 was used for injecting mice.
# as §1
# In the meantime, the SEC column was also equilibrated with PBS supplemented with the reducing agent at the same concentration. For running SEC, 100 μL of the recombinant IgA (concentration varies between 1 mg/mL and 8 mg/mL) or purified native human IgA1 (˜1 mg/mL) was loaded to the column and UV absorption was recorded following elution. Recombinant IgA typically formed two elution peaks: a minor peak of ˜800 kDa poly-rIgA followed by a major peak of ˜170 kDa of monomeric rIgA. The ratios between poly-rIgA and mono-rIgA were calculated as between the corresponding areas under the curve (AUC), and the treatment effect of the thiol agents was judged by the reduction of the poly-rIgA level with a compensatory increase of the mono-rIgA content.
# In addition, human IgA1 whole molecule was purified from pooled plasma of IgA nephropathy patients and subjected the sample to different concentrations of cysteamine (FIG. 5, part C). […]
# rat poly-rIgA = test: Nonreducing SDS-PAGE analysis of rat poly-rIgA after pretreatment; conditions: cysteamine 0 to 10 mM; TCEP 10 mM; untreated poly-IgA >250 kDa
# Experimental: Proteins in sample buffer (Bio-Rad Laboratories, Hercules, CA, USA) with or without TCEP (for reducing or nonreducing condition, respectively) were resolved by 4-12% SDS-PAGE (Bio-Rad Laboratories). IgA bands were subsequently visualized either by staining with GelCode Blue (Thermo Fisher Scientific), or by Western blotting on PVDF membrane. For Western blotting, 5% non-fat milk was used in blocking for one hour at room temperature. The membrane was then incubated with mouse anti-Histag antibody (Thermo Scientific), or HRP-conjugated goat anti-rat IgA α-chain antibody (Cat. ab97185, Abcam, UK), or goat anti-human IgA HRP antibody (Cat: 2050-05, SouthernBiotech) for detecting rat or human IgA (Fc), respectively. The membrane was developed using the Clarity™ ECL substrate (Bio-Rad Laboratories, CA, USA).
# To further ascertain the mechanism-of-action of cysteamine in targeting disulfides, nonreducing SDS-PAGE analysis was performed of rat poly-rIgA (FIG. 5, part D). The samples were pretreated with 0 to 10 mM cysteamine, or 10 mM TCEP as positive control. As expected, poly-IgA appeared as >250 kDa bands on SDS-PAGE. Dose-dependent response of poly-rIgA to cysteamine was evident, with majority of the protein running at ˜64 kDa of disaggregated monomers.
smiles,measurement,setting,value
NCCS [cysteamine],Mono-IgA (%),Rat rIgA (poly-rIgA); cysteamine 0.1 mM,81.85%
same,Poly-IgA (%),Rat rIgA (poly-rIgA); cysteamine 0.1 mM,18.15%
same,Mono-IgA (%),Rat rIgA (poly-rIgA); cysteamine 1 mM,89.57%
same,Poly-IgA (%),Rat rIgA (poly-rIgA); cysteamine 1 mM,10.43%
same,Mono-IgA (%),Rat rIgA (poly-rIgA); cysteamine 5 mM,93.59%
same,Poly-IgA (%),Rat rIgA (poly-rIgA); cysteamine 5 mM,6.414%
same,Mono-IgA (%),Rat rIgA (poly-rIgA); cysteamine 10 mM,93.24%
same,Poly-IgA (%),Rat rIgA (poly-rIgA); cysteamine 10 mM,6.759%
same,poly-IgA1 amount (SEC),human IgA1 (poly-IgA1),reduced the amounts of poly-IgA1
same,molecular weight of protein band after pretreatment (nonreducing SDS-PAGE),rat poly-rIgA,~64 kDa
